Source: ChEMBL document CHEMBL1137840, “A novel cyclic enkephalin analogue with potent opioid antagonist activity” (Bioorg Med Chem Lett, 2004)

Assays:
[1] = biological target: Kappa-type opioid receptor (Cavia porcellus) (UniProt P41144); assay: Binding potency towards Kappa opioid receptor of guinea pig ileum; format: tissue-based
[2] = biological target: Mu-type opioid receptor (Cavia porcellus) (UniProt P97266); assay: Binding potency towards Mu opioid receptor of guinea pig ileum; format: tissue-based
Mu-type opioid receptor (Cavia porcellus), sequence (P97266 whole entry): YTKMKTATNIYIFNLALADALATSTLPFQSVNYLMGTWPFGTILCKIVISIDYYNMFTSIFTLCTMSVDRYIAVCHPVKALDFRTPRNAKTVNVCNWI

[3] = biological target: Delta-type opioid receptor (Mus musculus) (UniProt P32300); assay: Binding potency towards Delta opioid receptor of mouse vas deferens; format: tissue-based
Delta-type opioid receptor (Mus musculus), sequence (P32300 whole entry): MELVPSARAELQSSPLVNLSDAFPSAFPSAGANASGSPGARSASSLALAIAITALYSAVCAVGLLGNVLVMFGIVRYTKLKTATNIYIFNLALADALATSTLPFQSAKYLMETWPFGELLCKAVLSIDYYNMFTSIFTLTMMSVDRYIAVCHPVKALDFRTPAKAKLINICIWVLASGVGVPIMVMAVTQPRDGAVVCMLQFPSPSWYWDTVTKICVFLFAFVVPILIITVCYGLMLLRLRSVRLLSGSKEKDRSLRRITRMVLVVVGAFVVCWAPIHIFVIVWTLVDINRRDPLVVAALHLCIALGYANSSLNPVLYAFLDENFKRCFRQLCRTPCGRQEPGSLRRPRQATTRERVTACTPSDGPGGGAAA

[4] = Binding affinity towards Opioid receptor mu 1
[5] = Binding affinity towards Kappa opioid receptor
[6] = biological target: Kappa-type opioid receptor (Cavia porcellus, UniProt P41144); assay: Inhibitory concentration against Kappa opioid receptor of guinea pig ileum; format: tissue-based
Kappa-type opioid receptor, sequence (P41144 whole entry): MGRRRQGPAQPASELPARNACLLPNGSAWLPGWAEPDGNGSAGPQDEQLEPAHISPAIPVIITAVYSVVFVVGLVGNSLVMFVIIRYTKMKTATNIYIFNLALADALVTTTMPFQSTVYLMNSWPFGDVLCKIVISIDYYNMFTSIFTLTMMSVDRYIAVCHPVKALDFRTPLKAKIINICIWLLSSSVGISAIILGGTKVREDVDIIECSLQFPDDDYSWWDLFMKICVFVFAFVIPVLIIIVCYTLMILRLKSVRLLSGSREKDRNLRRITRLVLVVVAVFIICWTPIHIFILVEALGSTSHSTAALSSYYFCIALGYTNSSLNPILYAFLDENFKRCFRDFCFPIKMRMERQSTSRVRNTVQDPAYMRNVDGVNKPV

[7] = Binding affinity towards Mu opioid receptor

Kappa-type opioid receptor (Cavia porcellus), sequence (P41144 whole entry): as above

Compound | Ke [1] [nM] | Ke [2] [nM] | Ke [3] [nM] | Ki [4] [nM] | Ki [5] [nM] | IC50 [6] [nM] | Ki [7] [nM]
Cc1cc(O)cc(C)c1[C@@H](C)CC(=O)N[C@H]1CSSC[C@H](C(N)=O)NC(=O)[C@H](Cc2ccc([N+](=O)[O-])cc2)NC(=O)CNC1=O | 5.81 | 1.4 | 55 | 2.1 | 49.5 | – | –
Cc1cc(O)cc(C)c1C[C@H](N)C(=O)N[C@@H]1CSSC[C@H](C(N)=O)NC(=O)[C@H](Cc2ccc([N+](=O)[O-])cc2)NC(=O)CNC1=O | – | – | – | – | 3.77 | 0.54 | 0.24
Cc1cc(O)cc(C)c1[C@H](C)CC(=O)N[C@H]1CSSC[C@H](C(N)=O)NC(=O)[C@H](Cc2ccc([N+](=O)[O-])cc2)NC(=O)CNC1=O | 1630 | 845 | 3280 | – | 6970 | – | 94.4
Cc1cc(O)cc(C)c1CCC(=O)N[C@H]1CSSC[C@H](C(N)=O)NC(=O)[C@H](Cc2ccc([N+](=O)[O-])cc2)NC(=O)CNC1=O | 22.6 | 3.68 | 63.3 | – | 299 | – | 4.79
